Where a name gives a salt, the structure may show the parent alone.

The assay deals with ATF4. In words: HEK-ATF4 High Content Imaging assay (prevention of Tunicamycin induced ISR). The format is cell-based. To be noted: Homo sapiens, Wild-type HEK293 cells, 6 h incubation, ATF4 signal ratio between nucleus and cytoplasm. The method, then: Example compounds were tested in the HEK-ATF4 High Content Imaging assay to assess their pharmacological potency to prevent Tunicamycin induced ISR. Wild-type HEK293 cells were plated in 384-well imaging assay plates at a density of 12,000 cells per well in growth medium (containing DMEM/F12, 10% FBS, 2 mM L-Glutamine, 100 U/mL Penicillin—100 μg/mL Streptomycin) and incubated at 37° C., 5% CO2. 24 h later, the medium was changed to 50 μL assay medium per well (DMEM/F12, 0.3% FBS, 2mM L-Glutamine, 100 U/mL Penicillin—100 μg/mL Streptomycin). Example compounds were serially diluted in DMSO, spotted into intermediate plates and prediluted with assay medium containing 3.3 […] Tunicamycin to give an 11-fold excess of final assay concentration. In addition to the example compound testing area, the plates also contained multiples of control wells for assay normalization purposes, wells containing Tunicamycin but no example compounds (High control), as well as wells containing neither example compound nor Tunicamycin (Low control). The assay was started by transferring 5 μL from the intermediate plate into the assay plates, followed by incubation for 6 h at 37° C., 5% CO2. Subsequently, cells were fixed (4% PFA in PBS, 20 min at r.t.) and submitted to indirect ATF4 immunofluorescence staining (primary antibody rabbit anti ATF4, clone D4B8, Cell Signaling Technologies; secondary antibody Alexa Fluor 488 goat anti-rabbit IgG (H+L), Thermofisher Scientific). Nuclei were stained using Hoechst dye (Thermofisher Scientific), and plates were imaged on an Opera Phenix High Content imaging platform equipped with 405 nm and 488 nm excitation. Finally, images were analyzed using script based algorithms. The main readout HEK-ATF4 monitored the ATF4 signal ratio between nucleus and cytoplasm. Tunicamycin induced an increase in the overall ATF4 ratio signal, which was prevented by ISR modulating example compounds. In addition, HEK-CellCount readout was derived from counting the number of stained nuclei corresponding to healthy cells. This readout served as an internal toxicity control.
Take `O=C(COc1ccc(Cl)c(F)c1)N[C@H]1CC[C@H](C(=O)Nc2ccn(C3CC3(F)F)n2)NC1` (stereo partly drawn) [Example 46, (2R,5S)-5-[2-(4-chloro-3-fluorophenoxy)acetamido]-N-[1-(2,2-difluorocyclopropyl)-1H-pyrazol-3-yl]piperidine-2-carboxamide]: the IC50 was 2000 to 15000 nM. Consider `COc1cccc(NC(=O)[C@H]2CC[C@H](NC(=O)COc3ccc(Cl)c(F)c3)CN2)c1` [Example 20, (2R,5S)-5-[2-(4-chloro-3-fluorophenoxy)acetamido]-N-(3-methoxyphenyl)piperidine-2-carboxamide], for which the IC50 is 2000 to 15000 nM.

`O=C(COc1ccc(Cl)c(F)c1)N[C@H]1CC[C@H](C(=O)Nc2cc(C(F)(F)F)cc(C(F)(F)F)c2)NC1` [Example 33, (2R,5S)-N-[3,5-bis(trifluoromethyl)phenyl]-5-[2-(4-chloro-3-fluorophenoxy)acetamido]piperidine-2-carboxamide]: the IC50 lay within 500 to 2000 nM.

For the compound `O=C(COc1ccc(Cl)c(F)c1)N[C@H]1CC[C@H](C(=O)Nc2ccccc2)NC1` [Example 10, (2R,5S)-5-[2-(4-chloro-3-fluorophenoxy)acetamido]-N-phenylpiperidine-2-carboxamide], the IC50 was 2000 to 15000 nM. Consider `O=C(COc1ccc(Cl)c(F)c1)N[C@@H]1CC[C@@H](C(=O)Nc2cccc(C(F)(F)F)c2)NC1` [Example 31, (2S,5R)-5-[2-(4-chloro-3-fluorophenoxy)acetamido]-N-[3-(trifluoromethyl)phenyl]piperidine-2-carboxamide], for which the IC50 was 1 to 500 nM. On to `O=C(COc1ccc(Cl)c(F)c1)N[C@H]1CC[C@H](C(=O)Nc2cccc(Cl)c2)NC1` [Example 11, (2R,5S)-5-[2-(4-chloro-3-fluorophenoxy)acetamido]-N-(3-chlorophenyl)piperidine-2-carboxamide], for which the IC50 lay in the range of 1 to 500 nM. In the case of `CN1C[C@@H](NC(=O)COc2ccc(Cl)c(F)c2)CC[C@@H]1C(=O)Nc1cncc(C(F)(F)F)n1` [Example 52, (2R,5S)-5-[2-(4-chloro-3-fluorophenoxy)acetamido]-1-methyl-N-[6-(trifluoromethyl)pyrazin-2-yl]piperidine-2-carboxamide] it was 1 to 500 nM. For `O=C(COc1ccc(Cl)c(F)c1)N[C@H]1CC[C@H](C(=O)Nc2cncc(C(F)(F)F)n2)NC1` [Example 51, (2R,5S)-5-[2-(4-chloro-3-fluorophenoxy)acetamido]-N-[6-(trifluoromethyl)pyrazin-2-yl]piperidine-2-carboxamide], the IC50 was in the range of 1 to 500 nM. As for `O=C(COc1ccc(Cl)c(F)c1)N[C@H]1CC[C@H](C(=O)Nc2cc(C(F)(F)F)ccn2)NC1` [Example 38, (2R,5S)-5-[2-(4-chloro-3-fluorophenoxy)acetamido]-N-[4-(trifluoromethyl)pyridin-2-yl]piperidine-2-carboxamide], the IC50 is 500 to 2000 nM. With `O=C(COc1ccc(Cl)c(F)c1)N[C@@H]1CC[C@@H](C(=O)Nc2ccc(Cl)cc2)NC1` [Example 9, (2S,5R)-5-[2-(4-chloro-3-fluorophenoxy)acetamido]-N-(4-chlorophenyl)piperidine-2-carboxamide], the IC50 fell in the range of 2000 to 15000 nM. As for `O=C(COc1ccc(Cl)c(F)c1)N[C@H]1CC[C@H](C(=O)Nc2ccnc(C(F)(F)F)n2)NC1` [Example 49, (2R,5S)-5-[2-(4-chloro-3-fluorophenoxy)acetamido]-N-[2-(trifluoromethyl)pyrimidin-4-yl]piperidine-2-carboxamide], the IC50 was 1 to 500 nM. For `O=C(COc1ccc(Cl)c(F)c1)N[C@H]1CC[C@H](C(=O)NCc2cc(C(F)(F)F)co2)NC1` [Example 18, (2R,5S)-5-[2-(4-chloro-3-fluorophenoxy)acetamido]-N-{[4-(trifluoromethyl)furan-2-yl]methyl}piperidine-2-carboxamide], the IC50 lay within 1 to 500 nM. For `O=C(COc1ccc(Cl)c(F)c1)N[C@H]1CC[C@H](C(=O)N[C@H]2C[C@@H](OC(F)(F)F)C2)NC1` [Example 27, (2R,5S)-5-[2-(4-chloro-3-fluorophenoxy)acetamido]-N-[(1s,3s)-3-(trifluoromethoxy)cyclobutyl]piperidine-2-carboxamide] the value was 500 to 2000 nM; for `O=C(COc1ccc(Cl)c(F)c1)N[C@H]1CC[C@H](C(=O)N2Cc3ccc(C(F)(F)F)cc3C2)NC1` [Example 40, 2-(4-chloro-3-fluorophenoxy)-N-[(3S,6R)-6-[5-(trifluoromethyl)-2,3-dihydro-1H-isoindole-2-carbonyl]piperidin-3-yl]acetamide], 1 to 500 nM. Regarding `O=C(COc1ccc(Cl)c(F)c1)N[C@H]1CC[C@H](C(=O)N2Cc3ccc(OC(F)(F)F)cc3C2)NC1` [Example 41, 2-(4-chloro-3-fluorophenoxy)-N-[(3S,6R)-6-[5-(trifluoromethoxy)-2,3-dihydro-1H-isoindole-2-carbonyl]piperidin-3-yl]acetamide], the IC50 was in the range of 1 to 500 nM.

`O=C(COc1ccc(Cl)c(F)c1)N[C@H]1CC[C@H](C(=O)Nc2ccc(Cl)cc2)NC1` [Example 8, (2R,5S)-5-[2-(4-chloro-3-fluorophenoxy)acetamido]-N-(4-chlorophenyl)piperidine-2-carboxamide]: the IC50 lay within 1 to 500 nM. For `Cc1c(NC(=O)[C@H]2CC[C@H](NC(=O)COc3ccc(Cl)c(F)c3)CN2)cnn1CC(F)(F)F` [Example 26, (2R,5S)-5-[2-(4-chloro-3-fluorophenoxy)acetamido]-N-[5-methyl-1-(2,2,2-trifluoroethyl)-1H-pyrazol-4-yl]piperidine-2-carboxamide] the value was 2000 to 15000 nM; for `O=C(COc1ccc(Cl)c(F)c1)N[C@H]1CC[C@H](C(=O)NCCCCC(F)(F)F)NC1` [Example 29, (2R,5S)-5-[2-(4-chloro-3-fluorophenoxy)acetamido]-N-(5,5,5-trifluoropentyl)piperidine-2-carboxamide], 2000 to 15000 nM. Consider `O=C(COc1ccc(Cl)c(F)c1)N[C@H]1CC[C@H](C(=O)Nc2cncc(C(F)(F)F)c2)NC1` [Example 22, (2R,5S)-5-[2-(4-chloro-3-fluorophenoxy)acetamido]-N-[5-(trifluoromethyl)pyridin-3-yl]piperidine-2-carboxamide], for which the IC50 lay in the range of 1 to 500 nM.

`O=C(COc1ccc(Cl)c(F)c1)N[C@H]1CC[C@H](C(=O)Nc2cccc(OC(F)(F)F)c2)NC1` [Example 13, (2R,5S)-5-[2-(4-chloro-3-fluorophenoxy)acetamido]-N-[3-(trifluoromethoxy)phenyl]piperidine-2-carboxamide]: the concentration for half-maximal inhibition (IC50) was 1 to 500 nM. Turning to `O=C(COc1ccc(Cl)c(F)c1)N[C@H]1CC[C@H](C(=O)N2CC(OCCOC(F)(F)F)C2)NC1` [Example 5, 2-(4-chloro-3-fluorophenoxy)-N-[(3S,6R)-6-{3-[2-(trifluoromethoxy)ethoxy]azetidine-1-carbonyl}piperidin-3-yl]acetamide], the IC50 was 2000 to 15000 nM.

With `O=C(COc1ccc(Cl)c(F)c1)N[C@H]1CC[C@H](C(=O)NCCCOC(F)(F)F)NC1` [Example 2, (2R,5S)-5-[2-(4-chloro-3-fluorophenoxy)acetamido]-N-[3-(trifluoromethoxy)propyl]piperidine-2-carboxamide hydrochloride], the IC50 was in the range of 2000 to 15000 nM.

Turning to `O=C(COc1ccc(Cl)c(F)c1)N[C@H]1CC[C@H](C(=O)Nc2ccc3c(c2)OC(F)(F)O3)NC1` [Example 39, (2R,5S)-5-[2-(4-chloro-3-fluorophenoxy)acetamido]-N-(2,2-difluoro-2H-1,3-benzodioxol-5-yl)piperidine-2-carboxamide], the IC50 lay within 1 to 500 nM. As for `O=C(COc1ccc(Cl)c(F)c1)N[C@H]1CC[C@H](C(=O)NCc2ccc(Cl)cn2)NC1` [Example 14, (2R,5S)-5-[2-(4-chloro-3-fluorophenoxy)acetamido]-N-[(5-chloropyridin-2-yl)methyl]piperidine-2-carboxamide], the IC50 is 2000 to 15000 nM. Turning to `Cc1cc(C)cc(NC(=O)[C@H]2CC[C@H](NC(=O)COc3ccc(Cl)c(F)c3)CN2)c1` [Example 28, (2R,5S)-5-[2-(4-chloro-3-fluorophenoxy)acetamido]-N-(3,5-dimethylphenyl)piperidine-2-carboxamide], the IC50 lay within 2000 to 15000 nM.

Take `O=C(COc1ccc(Cl)c(F)c1)N[C@H]1CC[C@H](C(=O)Nc2cc(C(F)(F)F)ccc2F)NC1` [Example 35, (2R,5S)-5-[2-(4-chloro-3-fluorophenoxy)acetamido]-N-[2-fluoro-5-(trifluoromethyl)phenyl]piperidine-2-carboxamide]: the IC50 fell in the range of 500 to 2000 nM. As to `O=C(COc1ccc(Cl)c(F)c1)N[C@H]1CC[C@H](C(=O)Nc2cccc(C(F)(F)F)c2F)NC1` [Example 36, (2R,5S)-5-[2-(4-chloro-3-fluorophenoxy)acetamido]-N-[2-fluoro-3-(trifluoromethyl)phenyl]piperidine-2-carboxamide], the IC50 lay within 1 to 500 nM.
